Reference: BigSolDB 2.1

CC(=O)N[C@@H](C)C(=O)O
solubility (mole fraction)
Settings | 283.15 K | 288.15 K | 293.15 K | 298.15 K | 303.15 K | 308.15 K | 313.15 K | 318.15 K | 323.15 K
in 2-butanone | 0.0111 | 0.0132 | 0.0161 | 0.0186 | 0.0215 | 0.026 | 0.03 | 0.0358 | 0.0437
in acetone | 0.0224 | 0.028 | 0.0329 | 0.0372 | 0.0446 | 0.0524 | 0.0638 | 0.0819 | 0.103
in acetonitrile | 0.00594 | 0.00727 | 0.00871 | 0.0114 | 0.0136 | 0.0177 | 0.0226 | 0.0312 | 0.0385
in dimethyl carbonate | 0.00223 | 0.00261 | 0.00319 | 0.00376 | 0.00449 | 0.00543 | 0.00668 | 0.00841 | 0.0103
in ethanol | 0.111 | 0.127 | 0.138 | 0.156 | 0.174 | 0.198 | 0.217 | 0.235 | 0.267
in ethyl acetate | 0.00433 | 0.00521 | 0.0062 | 0.00718 | 0.00806 | 0.00947 | 0.0112 | 0.0131 | 0.0156
in isobutanol | 0.0571 | 0.063 | 0.0718 | 0.0798 | 0.0916 | 0.107 | 0.12 | 0.132 | 0.145
in isopentanol | 0.0527 | 0.0563 | 0.0636 | 0.0713 | 0.0823 | 0.0949 | 0.108 | 0.125 | 0.139
in isopropanol | 0.0781 | 0.0901 | 0.1 | 0.113 | 0.13 | 0.148 | 0.162 | 0.175 | 0.195
in methyl acetate | 0.00578 | 0.00705 | 0.00861 | 0.00997 | 0.0114 | 0.0135 | 0.0162 | 0.0196 | 0.0242
in n-butanol | 0.0633 | 0.0707 | 0.0784 | 0.0869 | 0.0982 | 0.114 | 0.127 | 0.143 | 0.157
in n-butyl acetate | 0.00354 | 0.00382 | 0.00417 | 0.00455 | 0.00504 | 0.00573 | 0.00654 | 0.00771 | 0.00892
in n-pentanol | 0.0516 | 0.0546 | 0.0621 | 0.0695 | 0.0805 | 0.0915 | 0.106 | 0.12 | 0.137
in n-propanol | 0.0858 | 0.0937 | 0.104 | 0.118 | 0.133 | 0.153 | 0.168 | 0.186 | 0.213
in n-propyl acetate | 0.003 | 0.00352 | 0.00421 | 0.00495 | 0.00558 | 0.00642 | 0.00755 | 0.00913 | 0.0109
in sec-butanol | 0.068 | 0.0759 | 0.0892 | 0.101 | 0.113 | 0.129 | 0.144 | 0.161 | 0.175
